Experimental data: ChEMBL document CHEMBL5576130, “Non-Covalent Inhibitors of SARS-CoV-2 Papain-Like Protease (PLpro): In Vitro and In Vivo Antiviral Activity” (J Med Chem, 2024)
Calls of active or inactive are those of the source. The rule behind the calls is not given here.

Assays:
[1] = system: SARS-CoV-2; test: Antiviral activity against SARS-CoV-2 USA-WA1/2020 infected in African green monkey Vero cells assessed as reduction in viral growth at 2 to 20 uM measured after 2 days by plaque assay; assay type: functional, organism-based; conditions: Severe acute respiratory syndrome coronavirus 2, dose 2-20 µM, time 2.0 day
[2] = Plasma protein binding in human; assay type: ADME, cell-free
[3] = system: SARS-CoV-2; test: Antiviral activity against SARS-CoV-2 USA-WA1/2020 infected in African green monkey Vero cells assessed as reduction in viral growth at 10 uM measured after 2 days by plaque assay; assay type: functional, organism-based; conditions: Severe acute respiratory syndrome coronavirus 2, time 2.0 day
[4] = system: SARS-CoV-2; test: Antiviral activity against SARS-CoV-2 USA-WA1/2020 infected in African green monkey Vero E6 cells […] for 1 hrs followed by viral infection and measured after 48 hrs; assay type: functional, organism-based; conditions: Severe acute respiratory syndrome coronavirus 2, USA-WA1/2020, Vero C1008
[5] = system: SARS-CoV-2; test: Antiviral activity against SARS CoV-2; assay type: functional, organism-based; conditions: Severe acute respiratory syndrome coronavirus 2

## Cc1ccc(NC2CNC2)cc1C(=O)N[C@H](C)c1cccc(-c2ccc(CNC(=O)C3CCCC3)s2)c1
[1]
  Activity: inactive

## Cc1ccc(OCCN)cc1C(=O)N[C@H](C)c1cccc(-c2ccc(CN3CCCC3)s2)c1
[1]
  Activity: inactive

## CC(=O)N1CCN(c2ccc(OCC3COC(Cn4ccnc4)(c4ccc(Cl)cc4Cl)O3)cc2)CC1 (stereo not drawn) [KETOCONAZOLE]
[2]
  PPB: 99.3%

## Cc1ccc(NC2CNC2)cc1C(=O)N[C@H](C)c1cccc(-c2ccc(CN[C@H]3CC[C@@H](O)C3)s2)c1 (single isomer, unassigned)
[3]
  Activity: inactive

## Cc1ccc(OC2CNC2)cc1C(=O)N[C@H](C)c1cccc(-c2ccc(CN3CCCC3)s2)c1
[1]
  Activity: Active

## Cc1ccc(NC2CNC2)cc1C(=O)N[C@H](C)c1cccc(-c2ccc(CN3CCCC3)s2)c1
[1]
  Activity: Active

## COC(=O)/C=C/C(=O)NNC(=O)CCc1ccccc1C(=O)N[C@H](C)c1cccc2ccccc12
[4]
  EC50: 0.26 µM

## Nc1ccc2cc3ccc(N)cc3nc2c1 [PROFLAVINE]
[5]
  EC50: 64 µM
